# Results reported in US11304955B2, “Small-molecule povidone analogs in coamorphous pharmaceutical phases” (ISP INVESTMENTS LLC, priority 2017, dated 2022).
# Columns and labels:
# [1] = Screening of bisVCap and bisVP with a range of drugs (hot stage melt, polarized optical microscopy); format: physicochemical; conditions: for crystallinity by polarized light microscopy, drug with bisVCap: drug:bisVCap 1:1 mol ratio, ground, melted, cooled, overnight / 18 hours at room temperature
# Method: Control samples without lactam coformers were also prepared for comparison. The slides were then allowed to cool to room temperature. The samples were examined using polarized optical microscopy after storing them overnight and again two weeks after melting to assess their crystallinity. Polarized optical micrographs were observed.
# A Linkam LTS420 heating stage attached to a Olympus XC50 microscope was used to heat the samples. Samples were placed on a glass microscope slide with a thin glass cover slide. […] Samples were then removed from the hot stage and allowed to cool. BisVCap was ground in 1:1 molar mixture with carbamazepine, carisoprodol, isoniazid and ROY. The carbamazepine/bisVCap sample was heated from room temperature to 170° C. at a rate of 10° C. min^−1, cooled at ° C. min^−1 to −40° C., then heated at 10° C. min^−1 to 165° C. The carisoprodol/bisVCap sample was heated from room temperature to 150° C. at a rate of 10° C. min^−1, cooled at ° C. min^−1 to −75° C., then heated at 10° C. min^−1 to 145° C. min^−1. The isoniazid/bisVCap sample was heated from room temperature to 175° C. at a rate of 10° C. min^−1, cooled at ° C. min^−1 to −100° C., then heated at 10° C. min^−1 to 125° C. min^−1. The ROY/bisVCap sample was heated from room temperature to 150° C. at a rate of 10° C. min^−1, cooled at ° C. min^−1 to −90° C., then heated at 10° C. min^−1 to 155° C. min^−1.
# [2] = ground 1:1 mixture with bisVCap, heated to 150-180° C., cooled to −85° C., second heating cycle
# [3] = Dynamic vapor sorption (DVS) water uptake; format: physicochemical; conditions: for hygroscopicity: DVS, small mass increase and lack of hysteresis; for mass increase in DVS plot: up to 90% relative humidity
# Method: A significant issue with PVP as an amorphous stabilizer is its hydroscopicity, and amorphous materials are frequently hygroscopic. Dynamic vapor sorption (DVS) has been used to compare the water uptake of bisVCap and PVP. […] However, amorphous forms have more apparent solubility than crystal forms and it is possible that amorphous bisVCap could absorb much more water than the crystalline form.
# DVS was performed using an SMS DVS-1 with a 10% RH step between humidity values with equilibrium achieved at 0.01% weight change before moving to the next step. Methods began at the humidity of the room at ambient which was measured by a Rotronic A/H hygrometer. The humidity was then increased to 90% RH before cycling to 0% RH, to 90% RH, to 0% RH. Samples weighing between 5-20mg were used.
# [4] = Heat-cool-heat cycles on hot stage with polarized light microscope; format: physicochemical; conditions: 1:1 mixture with bisVCap
# From the text: The same heat-cool-heat cycles used in the DSC experiments were reproduced using a hot stage attached to a polarized light microscope for 1:1 mixtures of carisoprodol, carbamazepine, isoniazid and ROY with bisVCap.
# (§1) A Linkam LTS420 heating stage attached to a Olympus XC50 microscope was used to heat the samples. Samples were placed on a glass microscope slide with a thin glass cover slide. For the amorphous material screening compounds were ground together in various drug to coformer ratio using 0.05 g of coformer in each case and heated at 30° C. min^−1 until the all of the sample had melted. Samples were then removed from the hot stage and allowed to cool. BisVCap was ground in 1:1 molar mixture with carbamazepine, carisoprodol, isoniazid and ROY. The carbamazepine/bisVCap sample was heated from room temperature to 170° C. at a rate of 10° C. min^−1, cooled at ° C. min^−1 to −40° C., then heated at 10° C. min^−1 to 165° C. The carisoprodol/bisVCap sample was heated from room temperature to 150° C. at a rate of 10° C. min^−1, cooled at ° C. min^−1 to −75° C., then heated at 10° C. min^−1 to 145° C. min^−1. The isoniazid/bisVCap sample was heated from room temperature to 175° C. at a rate of 10° C. min^−1, cooled at ° C. min^−1 to −100° C., then heated at 10° C. min^−1 to 125° C. min^−1. The ROY/bisVCap sample was heated from room temperature to 150° C. at a rate of 10° C. min^−1, cooled at ° C. min^−1 to −90° C., then heated at 10° C. min^−1 to 155° C. min^−1.
# [5] = Hot stage microscope experiments with increasing drug:bisVCap ratios; format: physicochemical; conditions: melted, cooled to room temperature
# Method: One major problem with PVP as an amorphous stabilizer is that often a large amount is required for stabilization of the amorphous phase. This often leads to very large pills or dosage forms which consist of multiple tablets. Thus further hot stage microscope and DSC experiments of bisVCap mixtures with carisoprodol, carbamazepine, isoniazid and ROY were performed with increasing drug:bisVCap ratios to determine the minimum ratio of coformer required to maintain the API in an amorphous state.
# For the microscope experiments the drugs and bisVCap were ground in the desired ratio, heated until all the sample had melted then cooled back to room temperature and analyzed by polarized light microscopy.
# as §1
# [6] = format: physicochemical; conditions: for crystallinity of ROY sample on the basis of birefringence: coformer ground 1:1 molar with ROY (PVP K12, PVCap 1:1 by mass; ROY control without coformer), melted, cooled to room temperature overnight
# From the text: Compounds 3-8 and VCap were all ground using a mortar and pestle in a 1:1 molar ratio with ROY. Comparative experiments were also undertaken in the same way with PVP (K12) (1) and PVCap (2) in a 1:1 ratio by mass with ROY. The samples were then placed on a microscope slide and covered with a thin, glass cover slip and heated using a hot stage optical microscope until all material had melted. The samples were then removed from the hot stage and allowed to cool to room temperature overnight. The cooled samples were examined under a microscope fitted with cross polarizing filters and assessed for crystallinity on the basis of birefringence.
# as §1
compound,measurement,setting,value
CN(C)C(=N)N=C(N)N [metformin],"crystallinity by polarized light microscopy, drug with bisVCap",[1],crystallized overnight
CCOC(=O)c1ccc(N)cc1 [benzocaine],"crystallinity by polarized light microscopy, drug with bisVCap",[1],crystallized overnight
CCc1cc(C(N)=S)ccn1 [ethionamide],"crystallinity by polarized light microscopy, drug with bisVCap",[1],appear amorphous
same,DSC behaviour of mixture with bisVCap,[2],"sharp and overlapping endothermic peaks on heating, which arise from decomposition"
CC(C)Cc1ccc(C(C)C(=O)O)cc1 (stereo not drawn) [ibuprofen],"crystallinity by polarized light microscopy, drug with bisVCap",[1],appear amorphous
same,DSC behaviour of mixture with bisVCap,[2],"sharp and overlapping endothermic peaks on heating, which arise from decomposition"
(bis)vinylcaprolactam [Amorphous bisVCap],hygroscopicity,[3],not significantly hygroscopic
same,mass increase in DVS plot,[3],1.2%
Cc1cccc(C)c1OCC(C)N (stereo not drawn) [mexiletine],"crystallinity by polarized light microscopy, drug with bisVCap",[1],appear amorphous
same,DSC behaviour of mixture with bisVCap,[2],"sharp and overlapping endothermic peaks on heating, which arise from decomposition"
CCCCC(=O)N(Cc1ccc(-c2ccccc2-c2nnn[nH]2)cc1)[C@H](C(=O)O)C(C)C [Valsartan],"crystallinity by polarized light microscopy, drug on its own","[1]; control sample without lactam coformer, melted and cooled to room temperature",remains amorphous
NCCc1ccc(O)c(O)c1 [dopamine],"crystallinity by polarized light microscopy, drug with bisVCap",[1],appear amorphous
Cn1c(=O)c2c(ncn2C)n(C)c1=O [caffeine],"crystallinity by polarized light microscopy, drug with bisVCap",[1],crystallized overnight
Cc1c(Cl)cccc1Nc1ccccc1C(=O)O [tolfenamic acid],"crystallinity by polarized light microscopy, drug with bisVCap",[1],appear amorphous
same,DSC behaviour of mixture with bisVCap,[2],"sharp and overlapping endothermic peaks on heating, which arise from decomposition"
CCCC(C)(COC(N)=O)COC(=O)NC(C)C (stereo not drawn) [carisoprodol],coamorphous phase formation in hot stage heat-cool-heat cycle,[4],confirm coamorphous phase formation
same,visible crystallization by polarized light microscopy,[5]; 2:1 drug:bisVCap molar ratio,no visible crystallization
same,visible crystallization by polarized light microscopy,[5]; 3:1 drug:bisVCap ratio,did not show any visible crystallization
same,visible crystallization by polarized light microscopy,[5]; 4:1 drug:bisVCap ratio,formed crystals overnight
same,"crystallinity by polarized light microscopy, drug with bisVCap",[1],appear amorphous
same,DSC behaviour of mixture with bisVCap,[2],"lacking features assignable to decomposition, recrystallization or melting endotherms in the second heating cycle"
(bis)vinylcaprolactam [bisVCap],stability of coamorphous phase with ROY on storage,[6],stable for prolonged periods
same,crystallinity of ROY sample on the basis of birefringence,[6],gives a coamorphous phase with ROY
same,hygroscopicity,[3],not hydroscopic
"Cc1cc(C#N)c(Nc2ccccc2[N+](=O)[O-])s1 [ROY, 5-methyl-2-[(2-nitrophenyl)amino]-3-thiophenecarbonitrile]",coamorphous phase formation in hot stage heat-cool-heat cycle,[4],confirm coamorphous phase formation
same,visible crystallization by polarized light microscopy,[5]; 2:1 drug:bisVCap molar ratio,no visible crystallization
same,visible crystallization by polarized light microscopy,[5]; 3:1 drug:bisVCap ratio,formed crystals overnight
same,crystallinity of ROY sample on the basis of birefringence,[6],readily crystallizes
same,time to ROY crystallization upon cooling,"[6]; melt of ROY alone or 1:1 molar with coformer, cooling to room temperature",within a few minutes
same,DSC behaviour of mixture with bisVCap,[2],"lacking features assignable to decomposition, recrystallization or melting endotherms in the second heating cycle"
NC(=O)N1c2ccccc2C=Cc2ccccc21 [carbamazepine],coamorphous phase formation in hot stage heat-cool-heat cycle,[4],confirm coamorphous phase formation
same,visible crystallization by polarized light microscopy,[5]; 2:1 drug:bisVCap molar ratio,no visible crystallization
same,visible crystallization by polarized light microscopy,[5]; 3:1 drug:bisVCap ratio,formed crystals overnight
same,"crystallinity by polarized light microscopy, drug with bisVCap",[1],appear amorphous
same,DSC behaviour of mixture with bisVCap,[2],"lacking features assignable to decomposition, recrystallization or melting endotherms in the second heating cycle"
NNC(=O)c1ccncc1 [isoniazid],coamorphous phase formation in hot stage heat-cool-heat cycle,[4],confirm coamorphous phase formation
same,visible crystallization by polarized light microscopy,[5]; 2:1 drug:bisVCap molar ratio,no visible crystallization
same,visible crystallization by polarized light microscopy,[5]; 3:1 drug:bisVCap ratio,formed crystals overnight
same,"crystallinity by polarized light microscopy, drug with bisVCap",[1],appear amorphous
same,DSC behaviour of mixture with bisVCap,[2],"lacking features assignable to decomposition, recrystallization or melting endotherms in the second heating cycle"
(bis)vinylcaprolactam [crystalline bisVCap],hygroscopicity,[3],not significantly hygroscopic
same,mass increase in DVS plot,[3],0.35%
